Measured values from article PMC10877733, “Discovery and Characterization of VU0542270, the First Selective Inhibitor of Vascular Kir6.1/SUR2B KATP Channels” (Molecular Pharmacology, 2024).

Tests used:
[1] = Plasma binding by equilibrium dialysis, mouse; assay type: in vitro ADME; settings: equilibrium dialysis 6 hours 37°C, read-out: Fu, plasma (mouse)
Description: (§1) Determination of VU0542270 fraction unbound (fu) in plasma from mouse, rat, and human was conducted in vitro via equilibrium dialysis using high-throughput dialysis (HTD) membrane plates. Dialysis membranes (four paired strips per HTD assay) were hydrated as described by the manufacturer and inserted into the HTD plate, which was assembled and prepared for sample addition by the dispensing of blank buffer [Delbecco’s phosphate buffered saline (DPBS), 100 µL/well] into the “top half” of each membrane-split well. VU0542270 was diluted into plasma from each species (5 µM final concentration), which was aliquoted in triplicate to the “bottom half” of the prepared HTD plate wells. The HTD plate was sealed and incubated for 6 hours at 37°C. Following incubation, each well (both top and bottom halves) was transferred (20 µL) to the corresponding well of a 96-shallow-well (V-bottom) plate. […]
(§2) fu was calculated as (analyte to IS mass spectrometry (MS) peak area ratio from Trans-buffer side)/(analyte to IS MS peak area ratio from Cis-plasma side). Mean values for each species were calculated from three replicates.

[2] = target: T1, Kir2.2 (Homo sapiens, UniProt Q14500); experiment: Thallium flux selectivity assay Kir2.2; assay type: cell-based
T1 construct: expressed in transfected cells
T1 sequence (Q14500 1-433): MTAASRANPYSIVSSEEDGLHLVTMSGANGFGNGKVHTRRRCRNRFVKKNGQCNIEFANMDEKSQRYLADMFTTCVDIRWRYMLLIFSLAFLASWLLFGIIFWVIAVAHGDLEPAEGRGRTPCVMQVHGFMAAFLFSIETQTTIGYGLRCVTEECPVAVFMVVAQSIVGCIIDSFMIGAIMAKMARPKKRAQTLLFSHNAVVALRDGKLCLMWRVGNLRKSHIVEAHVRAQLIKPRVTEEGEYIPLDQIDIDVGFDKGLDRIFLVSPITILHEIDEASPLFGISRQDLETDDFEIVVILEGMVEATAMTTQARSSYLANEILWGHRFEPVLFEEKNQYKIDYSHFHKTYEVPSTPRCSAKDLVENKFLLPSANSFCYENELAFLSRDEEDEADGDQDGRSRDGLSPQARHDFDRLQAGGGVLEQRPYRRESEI
Description: (§3) Quantitative thallium flux assays of Kir6.1/SUR2B activity were performed essentially as described previously for Kir6.2/SUR1 ([Raphemot et al., 2014]; [Kharade et al., 2019]). Stable T-Rex-HEK293-Kir6.1/SUR2B cells or transiently transfected HEK293T cells were plated in polyamine-coated, clear-bottomed, black-walled 384-well plates and were cultured (37°C/5% CO2) overnight in Dulbecco’s modified Eagle’s medium (Gibco, Carlsbad, CA, 11995-065) containing 10% FBS (2 mM Penicillin-Streptomycin). The following day, cells were washed with assay buffer (i.e., Hanks’ balanced salt solution/20 mM HEPES) and loaded for 1 hour with thallium sensor dye Brilliant Thallium (Ion Bioscience, San Marcos, TX) at room temperature. Dye-loaded cells were washed with assay buffer and transferred to a Panoptic Kinetic Imaging Plate Reader (Wavefront Bioscience, Franklin, TN). Control and test compound treatments were for 4 minutes prior to adding 0.5 mM chloride-free thallium stimulus buffer (Ion Bioscience) to initiate thallium flux. […] Selectivity assays against other Kir channels were performed essentially as described previously ([Kharade et al., 2018]; [McClenahan et al., 2022]).

[3] = Plasma binding by equilibrium dialysis, rat; assay type: in vitro ADME; settings: equilibrium dialysis 6 hours 37°C, read-out: Fu, plasma (rat)
Description: as §1, §2

[4] = target: T2, Kir3.1/Kir3.4 (Homo sapiens, UniProt P48544+P48549); experiment: Thallium flux selectivity assay Kir3.1/Kir3.4; assay type: cell-based
T2 construct: expressed in transfected cells
T2 sequence (P48549 1-501): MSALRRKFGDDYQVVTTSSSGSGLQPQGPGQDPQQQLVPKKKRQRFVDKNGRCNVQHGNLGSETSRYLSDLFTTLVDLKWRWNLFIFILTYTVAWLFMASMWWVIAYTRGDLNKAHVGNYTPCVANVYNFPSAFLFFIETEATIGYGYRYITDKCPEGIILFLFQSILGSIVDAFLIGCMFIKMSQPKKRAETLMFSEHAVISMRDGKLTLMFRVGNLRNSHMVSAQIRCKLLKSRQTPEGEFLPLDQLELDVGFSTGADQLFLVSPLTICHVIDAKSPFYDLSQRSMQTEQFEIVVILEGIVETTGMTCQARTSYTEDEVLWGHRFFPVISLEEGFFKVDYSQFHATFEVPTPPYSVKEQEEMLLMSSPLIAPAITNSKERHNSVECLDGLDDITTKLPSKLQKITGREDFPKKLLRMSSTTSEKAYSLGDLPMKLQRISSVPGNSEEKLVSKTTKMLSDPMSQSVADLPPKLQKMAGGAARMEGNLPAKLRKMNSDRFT
T2 sequence (P48544 1-419): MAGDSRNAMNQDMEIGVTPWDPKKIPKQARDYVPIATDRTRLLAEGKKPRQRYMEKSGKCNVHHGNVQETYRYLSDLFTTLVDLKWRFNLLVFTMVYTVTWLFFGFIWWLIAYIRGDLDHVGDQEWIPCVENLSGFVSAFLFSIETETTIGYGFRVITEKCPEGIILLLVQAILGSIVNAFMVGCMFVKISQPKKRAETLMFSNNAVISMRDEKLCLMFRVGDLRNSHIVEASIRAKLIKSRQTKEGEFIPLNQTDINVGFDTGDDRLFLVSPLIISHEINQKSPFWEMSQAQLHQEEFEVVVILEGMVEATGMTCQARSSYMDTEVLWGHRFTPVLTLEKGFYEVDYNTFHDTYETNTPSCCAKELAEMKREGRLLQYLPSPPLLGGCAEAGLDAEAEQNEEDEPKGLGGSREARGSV
Description: as §3

## Cc1nc(-c2cccs2)sc1CNC(=O)Nc1cccs1 [VU0542270]
[1]
  fraction unbound at 6 h, 5 µM: 0.01
[2]
  IC50: > 30 µM
[3]
  fraction unbound at 6 h, 5 µM: 0.01
[4]
  IC50: > 30 µM
